Data set [1] in a line: Oligosaccharide analysis of ATFD powder: breakdown during the drying run. The data set is classed as physicochemical. Conditions: ATFD system B; 1-hour run (2′FL) or 2-hour run (LNnT, 6′SL); heated surface 64-70° C., 20-40 mbar. How it is done: Neutral oligosaccharides were analyzed on a Waters™ Acquity H-class UPLC with Evaporative Light Scattering Detector (ELSD) or a Refractive Index (RI) detection. A volume of 0.7 μL sample was injected on a Waters™ Acquity UPLC BEH Amide column (2.1×100 mm; 130 Å; 1.7 μm) column with an Acquity UPLC BEH Amide VanGuard column, 130 Å, 2.1×5 mm. The column temperature was 50° C. The mobile phase consisted of a ¼ water and ¾ acetonitrile solution to which 0.2% triethylamine was added. The method was isocratic with a flow of 0.130 mL/min. […] The temperature of the RI detector was set at 35° C.
Sialylated oligosaccharides were analyzed on a Waters™ Acquity H-class UPLC with Refractive Index (RI) detection. A volume of 0.5 μL sample was injected on a Waters™ Acquity UPLC BEH Amide column (2.1×100 mm; 130 Å; 1.7 μm). The column temperature was 50° C. The mobile phase consisted of a mixture of 70% acetonitrile, 26% ammonium acetate buffer (150 mM) and 4% methanol to which 0.05% pyrrolidine was added. The method was isocratic with a flow of 0.150 mL/min. The temperature of the RI detector was set at 35° C.
Both neutral and sialylated sugars were analyzed on a Waters™ Acquity H-class UPLC with Refractive Index (RI) detection. A volume of 0.5 μL sample was injected on a Waters™ Acquity UPLC BEH Amide column (2.1×100 mm; 130 Å; 1.7 μm). The column temperature was 50° C. The mobile phase consisted of a mixture of 72% acetonitrile and 28% ammonium acetate buffer (100 mM) to which 0.1% triethylamine was added. The method was isocratic with a flow of 0.260 mL/min. The temperature of the RI detector was set at 35° C.
A pilot ATFD system (i.e., system B as described throughout the Examples) was used to produce larger amounts of dried oligosaccharide. The inner diameter and length of the drying chamber is 15.1 cm and 41.7 cm, respectively. The heat exchanger area is 0.2 m^2. […] The amount of condensed water was measured and used to obtain the evaporation rate. The specific evaporation rate was calculated by dividing the evaporation rate by the used heat exchange area.

For data set [2] the following is noted: 25° C.; literature values (WO2018/164937, EFSA Journal); cited from earlier work.
Data set [3] can be described thus: Moisture / water content of dried oligosaccharide powder (Karl Fischer titration, infrared moisture analyzer). Type of data set: physicochemical. The following applies: powder from ATFD system B; heated surface 64-70° C., 20-40 mbar, rotor 800-850 rpm; about 20% dry weight solution in reverse osmosis water. From the text:
Sartorius MA150 Infrared Moisture Analyzer is used to determine the dry matter content of the oligosaccharides. 0.5 g of oligosaccharide is weighed on an analytical balance and is dried in the infrared moisture analyzer until the weight of the sample is stable. The mass of the dried sample divided by the mass of the sample before drying gives the dry matter content (in percent) of the oligosaccharides or sample including oligosaccharides. In a similar way a liquid sample is weighed, however, the amount of liquid weighed is adapted to the expected amount of dry matter in the liquid, so the mass of the dry matter is properly measurable on an analytical balance.
A moisture analyzer measures the dry matter, but not the water content. Karl Fisher titration is used to determine the amount of water present in a powder, ingredient of food. […]
The moisture content (MC) of sample was calculated using the following equation: […]
For testing the principle of agitated thin film drying on oligosaccharides according to the disclosure, a model system (i.e., system A as described throughout the Examples) is used wherein the model directly translates to large scale manufacturing. […] The ATFD chamber was equipped with a Liebig condenser and a dropping funnel to condense and quantify the vapor release. […]
Solutions (such as syrups) containing an oligosaccharide or a mixture of oligosaccharides were preheated to a temperature between 3° and 100° C. and pumped to the system with a peristaltic pump with a flow ranging from 0.1 to 1 kg/h. […] The amount of condensed water was measured and used to obtain the evaporation rate. The specific evaporation rate was calculated by dividing the evaporation rate by the used heat exchange area.
A pilot ATFD system (i.e., system B as described throughout the Examples) was used to produce larger amounts of dried oligosaccharide. […] The amount of condensed water was measured and used to obtain the evaporation rate. The specific evaporation rate was calculated by dividing the evaporation rate by the used heat exchange area. […]

Data set [4] can be described thus: Color of powder obtained by ATFD. The data set is classed as physicochemical. The following applies: ATFD system B; from 15 min (2′FL), 30 min (LNnT) or 20 min (6′SL) and at each subsequent time-point. From the text: In a first aspect, provided is a method for drying an oligosaccharide and/or for obtaining an oligosaccharide in the form of a solid (preferably a powder), the method comprising the steps of: • i) providing a solution comprising an oligosaccharide; and • ii) applying the solution to an agitated thin film dryer, • wherein the oligosaccharide has a degree of polymerization (DP) that is less than 16, preferably less than 15, even more preferably less than 14, even more preferably less than 13, even more preferably less than 12, even more preferably less than 11, even more preferably less than 10, even more preferably less than 9, even more preferably less than 8, most preferably less than 7. […] The “ICUMSA” refers to the International Commission for Uniform methods of Sugar Analysis, i.e., the unit used for the measurement of sugar color.
A pilot ATFD system (i.e., system B as described throughout the Examples) was used to produce larger amounts of dried oligosaccharide. The inner diameter and length of the drying chamber is 15.1 cm and 41.7 cm, respectively. The heat exchanger area is 0.2 m^2. The heat exchanger area can be heated at 50-120° C. using steam. The distance between the rotor and wall is 0.9 mm. The blades can rotate at 200-2200 rpm. The condenser was operated with cooling water of 5-6° C. The amount of condensed water was measured and used to obtain the evaporation rate. The specific evaporation rate was calculated by dividing the evaporation rate by the used heat exchange area.

A short description of data set [5]: Bulk density of powder (ASTM D1895 method A, i.e., ISO Method R 60). Type of data set: physicochemical. Conditions: for bulk density of the powder obtained by ATFD, average during the run: ATFD system B powder; for bulk density of the spray dried powder: spray dried powder (comparison). The text has this:
As used herein, the term “bulk density” is the weight of the particles of a particulate solid (such as a powder) in a given volume, and is expressed in grams per liter (g/L). The total volume that the particles of a particulate solid occupy depends on the size of the particles themselves and the volume of the spaces between the particles. Entrapped air between and inside the particles also can affect the bulk density. Thus, a particulate solid consisting of large, porous particles with large inter-particulate spaces will have a lower bulk density than a particulate solid consisting of small, non-porous particles that compact closely together. Bulk density can be expressed in two forms: “loose bulk density” and “tapped bulk density.” Loose bulk density (also known in the art as “freely settled” or “poured” bulk density) is the weight of a particulate solid divided by its volume where the particulate solid has been allowed to settle into that volume of its own accord (e.g., a powder poured into a container).
Techniques for measuring bulk density are well known in the art. Loose bulk density may be measured using a measuring cylinder and weighing scales: the particulate solid is poured into the measuring cylinder and the weight and volume of the particulate solid; weight divided by volume gives the loose bulk density. Tapped bulk density can be measured using the same technique, with the addition of tapping the measuring cylinder a set number of times before measuring weight and volume. Automation of tapping ensures the number, timing and pressure of individual taps is accurate and consistent. Automatic tapping devices are readily available, an example being the Jolting Stampfvolumeter (STAV 203) from J. Englesmann A G.
Lacto-N-neotetraose (LNnT) was recombinantly produced in E. coli according to Example 2, followed by a cell lysis treatment and/or broth clarification according to Example 4. The clarified broth was finally spray dried as described in Example 1 to obtain a powder comprising LNnT (74%), pLNnH (13%; para-lacto-N-neohexaose) and LNT-II (3%; lacto-N-triose II). A solution (16.1 kg) of LNnT was then prepared in reverse osmosis water such that the dry weight is 19.60%. The LNnT solution was then fed into the ATFD system B (it is referred to Example 1) at 7.7 kg/h. […] Every 5 minutes, a sample of the obtained powder was analyzed according to Example 1 (dry matter content, moisture content, oligosaccharide analysis, color).
6′-sialyllactse (6′SL) was recombinantly produced in E. coli according to Example 2, followed by a cell lysis treatment and/or broth clarification according to Example 4. […] Every 5 minutes, a sample of the obtained powder was analyzed according to Example 1 (dry matter content, moisture content, oligosaccharide analysis, color).

In brackets after ≈: the same amount, converted by molar mass.

2′-fucosyllactose: the “oligosaccharide broken down at the end of the run” value (“oligosaccharide broken down” for short) in data set [1] is reported as “less than 4%”. In addition, in data set [2], the “solubility in an aqueous solution” value is 1410 mg/mL. The mean moisture content in data set [3] is 2.47%. Also, in data set [4], the “color of the obtained powder” value is given as “white to off-white”.

Take `CC(=O)N[C@H]1[C@H](O[C@H]2[C@@H](O)[C@@H](CO)O[C@@H](O[C@H]3[C@H](O)[C@@H](O)C(O)O[C@@H]3CO)[C@@H]2O)O[C@H](CO)[C@@H](O[C@@H]2O[C@H](CO)[C@H](O)[C@H](O)[C@H]2O)[C@@H]1O` (mixture of isomers) [Lacto-N-neotetraose]: the “oligosaccharide broken down” value in data set [1] is listed as “less than 10%”. The “solubility in an aqueous solution” value in data set [2] was 500 mg/mL. In data set [3], this compound returned a mean moisture content of 5.5%. Also, the “color of the obtained powder” value in data set [4] is recorded as “white to off-white”. Also, in data set [5], the “bulk density of the powder obtained by ATFD, average during the run” value was 509 ± 16 g/L and the “bulk density of the spray dried powder” value was found to be 368 g/L.

Turning to `CC(=O)N[C@H]1[C@H]([C@H](O)[C@H](O)CO)O[C@@](O[C@H]2[C@@H](O)[C@@H](CO)O[C@@H](O[C@H]3[C@H](O)[C@@H](O)C(O)O[C@@H]3CO)[C@@H]2O)(C(=O)O)C[C@@H]1O` (stereo partly drawn) [3′-sialyllactose], the “solubility in an aqueous solution” value in data set [2] is 500 mg/mL (≈ 789 mM).

As for `CC(=O)N[C@H]1[C@H]([C@H](O)[C@H](O)CO)O[C@@](OC[C@H]2O[C@@H](O[C@H]3[C@H](O)[C@@H](O)[C@H](O)O[C@@H]3CO)[C@H](O)[C@@H](O)[C@H]2O)(C(=O)O)C[C@@H]1O` [6′-sialyllactose], the “oligosaccharide broken down” value in data set [1] is recorded as “less than 10%”. Further, the “solubility in an aqueous solution” value in data set [2] is “at least 500 g/L”. In data set [3], the mean moisture content is listed as 6.2-6.8%. In data set [4], the “color of the obtained powder” value is reported as “white to off-white”. For the same compound, in data set [5], the “bulk density of the powder obtained by ATFD, average during the run” value worked out at 521 ± 10 g/L and the “bulk density of the spray dried powder” value was 321 g/L.

As for `CC(=O)N[C@H]1[C@H](O[C@H]2[C@@H](O)[C@@H](CO)O[C@@H](O[C@H]3[C@H](O)[C@@H](O)C(O)O[C@@H]3CO)[C@@H]2O)O[C@H](CO)[C@@H](O)[C@@H]1O[C@@H]1O[C@H](CO)[C@H](O)[C@H](O)[C@H]1O` (stereo partly drawn) [Lacto-N-tetraose], in data set [2], the “solubility in an aqueous solution” value is 400 mg/mL (≈ 565 mM).

These data come from patent publication US20250043031A1, “NOVEL DRYING METHOD FOR OLIGOSACCHARIDES” (INBIOSE N.V., priority 2021, published 2025).
